We go through 24 molecules from PubChem BioAssay AID192 (DTP/NCI, 2004).

The test system of the test is BDF1 mice, B16 melanoma ip, median survival T/C. In words: NCI In Vivo Anticancer Drug Screen. Data for tumor model B16 Melanoma (intraperitoneal) in B6D2F1 (BDF1) mice. The conditions noted are these: endpoint: median survival time, higher = longer survival. The method, boiled down:
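Each result divides a survival or tumor-size measurement in the compound-treated group by the same measurement in the vehicle group.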

[1] abbreviates: dose: 75.0 mg/kg/injection, schedule: Q01DX009 (ip), vehicle: saline with Tween-80.
Where [2] appears, read: dose: 50.0 mg/kg/injection, schedule: Q01DX009 (ip), vehicle: Klucel (hydroxypropylcellulose) (HPC).
Setting [3] is: dose: 100.0 mg/kg/injection, schedule: Q01DX009 (ip), vehicle: Klucel (hydroxypropylcellulose) (HPC).
Setting [4] is: dose: 200.0 mg/kg/injection, schedule: Q01DX009 (ip), vehicle: Klucel (hydroxypropylcellulose) (HPC).
Setting [5] is: dose: 80.0 mg/kg/injection, schedule: Q01DX009 (ip), vehicle: saline.
Setting [6] is: dose: 200.0 mg/kg/injection, schedule: Q01DX009 (ip), vehicle: saline.
Where [7] appears, read: dose: 400.0 mg/kg/injection, schedule: Q01DX009 (ip), vehicle: saline.
Where [8] appears, read: dose: 50.0 mg/kg/injection, schedule: Q01DX009 (ip), vehicle: saline with Tween-80.
The mark [9] stands for this setting: dose: 6.25 mg/kg/injection, schedule: Q01DX009 (ip), vehicle: saline with Tween-80.
Where [10] appears, read: dose: 12.5 mg/kg/injection, schedule: Q01DX009 (ip), vehicle: saline with Tween-80.
Setting [11] is: dose: 25.0 mg/kg/injection, schedule: Q01DX009 (ip), vehicle: saline with Tween-80.
The mark [12] stands for this setting: dose: 100.0 mg/kg/injection, schedule: Q01DX009 (ip), vehicle: saline.
The mark [13] stands for this setting: dose: 6.25 mg/kg/injection, schedule: Q01DX009 (ip), vehicle: saline.
The mark [14] stands for this setting: dose: 12.5 mg/kg/injection, schedule: Q01DX009 (ip), vehicle: saline.
Where [15] appears, read: dose: 25.0 mg/kg/injection, schedule: Q01DX009 (ip), vehicle: saline.
Setting [16] is: dose: 50.0 mg/kg/injection, schedule: Q01DX009 (ip), vehicle: saline.
Setting [17] is: dose: 37.5 mg/kg/injection, schedule: Q04DX003 (ip), vehicle: saline.

Where “and” joins values, the source holds several entries; their conditions need not be identical. Identical values can stand only once. Inconclusive results and toxic doses are left out.

Regarding `O=C(NN=C1CCCCC1)c1ccccc1`, the T/C reads like this: (dose: 18.75 mg/kg/injection, schedule: Q01DX009 (ip), vehicle: saline with Tween-80) 97 % of control; (dose: 37.5 mg/kg/injection, schedule: Q01DX009 (ip), vehicle: saline with Tween-80) 100 % of control; under setting [1], 105 % of control and 107 % of control.

Turning to `Cc1ccc(CNc2ccc(Cl)cc2)cc1`, the T/C is 91 % of control under setting [2] and 94 % of control under setting [3].

As for `Cc1ccc(Nc2ccc([N+](=O)[O-])cc2[N+](=O)[O-])c(C)c1`, the T/C runs as follows: under setting [3], 93 % of control; under setting [4], 98 % of control; (dose: 400.0 mg/kg/injection, schedule: Q01DX009 (ip), vehicle: Klucel (hydroxypropylcellulose) (HPC)) 97 % of control.

Regarding `CCN=C=NCCCN(C)C`, the T/C reads like this: (dose: 10.0 mg/kg/injection, schedule: Q01DX009 (ip), vehicle: saline) 92 % of control; (dose: 20.0 mg/kg/injection, schedule: Q01DX009 (ip), vehicle: saline) 92 % of control; (dose: 40.0 mg/kg/injection, schedule: Q01DX009 (ip), vehicle: saline) 97 % of control; under setting [5], 94 % of control.

As for `O=C(C(=O)c1cc(Br)ccc1O)c1cc(Br)ccc1O`, the T/C by setting is: under setting [3], 96 % of control; under setting [4], 106 % of control.

Consider `CC(O)C(NC(=O)OC(C)(C)C)C(=O)O` (stereo unspecified), for which the T/C under setting [6] was 105 % of control and the T/C under setting [7] was 93 % of control.

On to `CNC(=S)N(C1CCCCC1)C1CCCCC1`, for which the T/C by setting is: under setting [8], 101 % of control; (dose: 100.0 mg/kg/injection, schedule: Q01DX009 (ip), vehicle: saline with Tween-80) 95 % of control; (dose: 200.0 mg/kg/injection, schedule: Q01DX009 (ip), vehicle: saline with Tween-80) 98 % of control.

Take `CCNc1nc(NC(C)C)nc(OC)n1`: the T/C by setting is: under setting [9], 113 % of control; under setting [10], 108 % of control; under setting [11], 110 % of control.

As for `COc1ccc(Cl)cc1NC(=O)Nc1ccc(Cl)c(Cl)c1`, the T/C runs as follows: (dose: 18.75 mg/kg/injection, schedule: Q01DX009 (ip), vehicle: Klucel (hydroxypropylcellulose) (HPC)) 96 % of control; (dose: 37.5 mg/kg/injection, schedule: Q01DX009 (ip), vehicle: Klucel (hydroxypropylcellulose) (HPC)) 95 % of control; (dose: 75.0 mg/kg/injection, schedule: Q01DX009 (ip), vehicle: Klucel (hydroxypropylcellulose) (HPC)) 90 % of control.

On to `COc1ccc(C(C#N)CC(=O)c2ccc3c(c2)OCO3)cc1OC` (stereo unspecified), for which the T/C is 103 % of control under setting [12], 100 % of control under setting [6] and 100 % of control under setting [7].

Consider `CN(C)c1ccc2c(c1)C(Br)c1ccccc1-2` (stereo unspecified), for which the T/C reads like this: (dose: 6.25 mg/kg/injection, schedule: Q04DX003 (ip), vehicle: Klucel (hydroxypropylcellulose) (HPC)) 102 % of control; (dose: 12.5 mg/kg/injection, schedule: Q04DX003 (ip), vehicle: Klucel (hydroxypropylcellulose) (HPC)) 105 % of control; (dose: 25.0 mg/kg/injection, schedule: Q04DX003 (ip), vehicle: Klucel (hydroxypropylcellulose) (HPC)) 97 % of control.

In the case of `COc1ccc2c(c1Oc1ccc([N+](=O)[O-])cc1[N+](=O)[O-])C13CCN(C)C(C2)C1CCC1(C3)OCCO1` (stereo unspecified), the T/C under setting [3] was 111 % of control and the T/C under setting [4] is 86 % of control.

For the molecule `CCCCOB(/C=C/Sc1ccccc1)OCCCC`, the T/C runs as follows: under setting [13], 101 % of control; under setting [14], 119 % of control; under setting [15], 100 % of control; (dose: 35.0 mg/kg/injection, schedule: Q01DX009 (ip), vehicle: saline) 117 % of control; under setting [2], 102 % of control; (dose: 300.0 mg/kg/injection, schedule: Q01DX009 (ip), vehicle: Klucel (hydroxypropylcellulose) (HPC)) 101 % of control.

Regarding `O=[N+]([O-])c1ccc(S(=O)(=O)O)c([N+](=O)[O-])c1.[Ag]`, the T/C is, setting by setting: (dose: 12.5 mg/kg/injection, schedule: Q04DX003 (ip), vehicle: DMSO) 86 % of control; (dose: 25.0 mg/kg/injection, schedule: Q04DX003 (ip), vehicle: DMSO) 86 % of control.

With `CNC(=S)N/N=C1/c2cc(Cl)ccc2-c2c(Cl)cc(Cl)cc21`, the T/C under setting [9] was 91 % of control.

On to `CC(=O)/C(N=O)=C(/C)O`, for which the T/C reads like this: under setting [16], 110 % of control; under setting [12], 105 % of control; under setting [6], 97 % of control.

Take `OC(CI)C(O)C(O)C(O)CI` (stereo unspecified): the T/C by setting is: under setting [12], 97 % of control; under setting [6], 94 % of control; under setting [7], 103 % of control.

As for `CCNCCC#N`, the T/C is, setting by setting: under setting [5], 113 % of control; (dose: 160.0 mg/kg/injection, schedule: Q01DX009 (ip), vehicle: saline) 119 % of control; (dose: 320.0 mg/kg/injection, schedule: Q01DX009 (ip), vehicle: saline) 105 % of control.

For `O`, the T/C reads like this: under setting [13], 96 % of control; under setting [14], 112 % of control; (dose: 18.75 mg/kg/injection, schedule: Q04DX003 (ip), vehicle: saline) 95 % of control; under setting [15], 93 % of control; under setting [17], 97 % of control; (dose: 100.0 mg/kg/injection, schedule: Q02DX009 (ip), vehicle: saline) 97 % of control. Moreover, the T/C is, setting by setting: (dose: 200.0 mg/kg/injection, schedule: Q02DX009 (ip), vehicle: saline) 100 % of control; (dose: 400.0 mg/kg/injection, schedule: Q02DX009 (ip), vehicle: saline) 96 % of control; (dose: 600.0 mg/kg/injection, schedule: Q02DX009 (ip), vehicle: saline) 103 % of control.

As for `CC(=O)c1cccc(NC2C(N)C(NC(=O)N(C)C)(C(C)O)C(C)(O)C2(O)COC(=O)c2c(C)cccc2O)c1` (stereo unspecified), the T/C is, setting by setting: (dose: 0.3 mg/kg/injection, schedule: Q01DX009 (ip), vehicle: saline with Tween-80) 115 % of control; (dose: 0.3 mg/kg/injection, schedule: Q01DX009 (ip), vehicle: saline) 113 % of control; (dose: 0.5 mg/kg/injection, schedule: Q01DX009 (ip), vehicle: Klucel (hydroxypropylcellulose) (HPC)) 116 % of control; (dose: 0.6 mg/kg/injection, schedule: Q01DX009 (ip), vehicle: saline) 113 % of control; (dose: 1.0 mg/kg/injection, schedule: Q01DX009 (ip), vehicle: Klucel (hydroxypropylcellulose) (HPC)) 113 % of control; (dose: 1.2 mg/kg/injection, schedule: Q01DX009 (ip), vehicle: saline) 122 % of control.

On to `NC(=S)N/N=C\c1nccc2c(N)cccc12`, for which the T/C was 115 % of control and 120 % of control under setting [9]; 160 % of control under setting [13]; 119 % of control under setting [10]; 172 % of control under setting [14]; 155 % of control (dose: 18.8 mg/kg/injection, schedule: Q04DX003 (ip), vehicle: saline); 156 % of control under setting [11]. Besides, the T/C is 179 % of control under setting [15]; 168 % of control under setting [17]; 164 % of control and 175 % of control under setting [8]; 197 % of control under setting [16]; 150 % of control and 153 % of control and 165 % of control under setting [1]; 168 % of control (dose: 75.0 mg/kg/injection, schedule: Q04DX003 (ip), vehicle: saline). Where the note is “dose: 150.0 mg/kg/injection, schedule: Q04DX003 (ip), vehicle: saline”, the T/C is 179 % of control.

Consider `CCOC12c3cc(OC)ccc3N(S(=O)(=O)c3ccc(C)cc3)CC1C2(Br)Br` (stereo unspecified), for which the T/C reads like this: under setting [2], 103 % of control; under setting [3], 93 % of control; under setting [4], 89 % of control.

`COc1ccc2c(ccc[n+]2C)c1`: the T/C was 93 % of control under setting [13]; 90 % of control under setting [14]; 100 % of control (dose: 12.5 mg/kg/injection, schedule: Q04DX003 (ip), vehicle: saline); 95 % of control under setting [15]; 100 % of control (dose: 25.0 mg/kg/injection, schedule: Q04DX003 (ip), vehicle: saline); 104 % of control (dose: 50.0 mg/kg/injection, schedule: Q04DX003 (ip), vehicle: saline).

For `Cc1[nH]c(=S)sc1C`, the T/C is 102 % of control under setting [15], 91 % of control under setting [16] and 102 % of control under setting [12].
